pIC50: −log10 of the molar value. Each block holds one compound with its values, some of them ahead of it.
System: 313798-341-R-J2-PDC spheroids, viability
Assay: Anticancer human tumor 313798-341-R-J2-PDC patient-derived cervical squamous cell carcinoma cell line growth inhibition [PI3K]
Settings: spheroids with HUVEC and MSC; for pIC50: curve of first compound; for viability, T/C: stronger effect = lower value
Procedure, shortened: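 Viability of mixed-cell spheroids was determined after exposure to pairwise combinations, one partner being inavolisib, alpelisib, duvelisib or copanlisib. Highest tested concentration matched clinical Cmax where known and 10 microM where not, descending in half-log steps.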

[1] = second compound 0.0316 µM, first compound 0.0316 µM
[2] = second compound 0.0316 µM, first compound 0.1 µM
[3] = second compound 0.0316 µM, first compound 0.316 µM
[4] = second compound 0.0316 µM, first compound 1 µM
[5] = second compound 0.0316 µM, first compound 3.16 µM
[6] = second compound 0.0316 µM, first compound 10 µM
[7] = second compound 0.1 µM, first compound 0.0316 µM
[8] = second compound 0.1 µM, first compound 0.1 µM
[9] = second compound 0.1 µM, first compound 0.316 µM
[10] = second compound 0.1 µM, first compound 1 µM
[11] = second compound 0.1 µM, first compound 3.16 µM
[12] = second compound 0.1 µM, first compound 10 µM
[13] = second compound 0.316 µM, first compound 0.0316 µM
[14] = second compound 0.316 µM, first compound 0.1 µM
[15] = second compound 0.316 µM, first compound 0.316 µM
[16] = second compound 0.316 µM, first compound 1 µM
[17] = second compound 0.316 µM, first compound 3.16 µM
[18] = second compound 0.316 µM, first compound 10 µM
[19] = second compound 1 µM, first compound 0.0316 µM
[20] = second compound 1 µM, first compound 0.1 µM
[21] = second compound 1 µM, first compound 0.316 µM
[22] = second compound 1 µM, first compound 1 µM
[23] = second compound 1 µM, first compound 3.16 µM
[24] = second compound 1 µM, first compound 10 µM
[25] = second compound 3.16 µM, first compound 0.0316 µM
[26] = second compound 3.16 µM, first compound 0.1 µM
[27] = second compound 3.16 µM, first compound 0.316 µM
[28] = second compound 3.16 µM, first compound 1 µM
[29] = second compound 3.16 µM, first compound 3.16 µM
[30] = second compound 3.16 µM, first compound 10 µM
[31] = second compound 10 µM, first compound 0.0316 µM
[32] = second compound 10 µM, first compound 0.1 µM
[33] = second compound 10 µM, first compound 0.316 µM
[34] = second compound 10 µM, first compound 1 µM
[35] = second compound 10 µM, first compound 3.16 µM
[36] = second compound 10 µM, first compound 10 µM
[37] = second compound 0.0316 µM, first compound 0.00316 µM
[38] = second compound 0.0316 µM, first compound 0.01 µM
[39] = second compound 0.1 µM, first compound 0.00316 µM
[40] = second compound 0.1 µM, first compound 0.01 µM
[41] = second compound 0.316 µM, first compound 0.00316 µM
[42] = second compound 0.316 µM, first compound 0.01 µM
[43] = second compound 1 µM, first compound 0.00316 µM
[44] = second compound 1 µM, first compound 0.01 µM
[45] = second compound 3.16 µM, first compound 0.00316 µM
[46] = second compound 3.16 µM, first compound 0.01 µM
[47] = second compound 10 µM, first compound 0.00316 µM
[48] = second compound 10 µM, first compound 0.01 µM
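Note: spheroids exposed to compounds for seven days.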
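Throughout, for viability, T/C: 100% = DMSO vehicle control viability.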

pIC50 (second compound 0.0316 µM): 5.79 | pIC50 (second compound 0.1 µM): 5.73 | pIC50 (second compound 0.316 µM): 5.76 | pIC50 (second compound 1 µM): 5.74 | pIC50 (second compound 3.16 µM): 5.73 | pIC50 (second compound 10 µM): 5.85
Structure (SMILES): CC(C)NCC(C(=O)N1CCN(c2ncnc3c2C(C)CC3O)CC1)c1ccc(Cl)cc1 (stereo not drawn) + CC(Nc1ncnc2nc[nH]c12)c1cc2cccc(Cl)c2c(=O)n1-c1ccccc1
viability, T/C [1]: 114% | viability, T/C [2]: 91.3% | viability, T/C [3]: 81.7% | viability, T/C [4]: 54% | viability, T/C [5]: 40.1% | viability, T/C [6]: 29.6% | viability, T/C [7]: 102% | viability, T/C [8]: 103% | viability, T/C [9]: 90.2% | viability, T/C [10]: 65.2% | viability, T/C [11]: 36.9% | viability, T/C [12]: 30.5% | viability, T/C [13]: 94% | viability, T/C [14]: 100% | viability, T/C [15]: 84.2% | viability, T/C [16]: 62% | viability, T/C [17]: 36.9% | viability, T/C [18]: 30% | viability, T/C [19]: 97.3% | viability, T/C [20]: 100% | viability, T/C [21]: 89.9% | viability, T/C [22]: 57.5% | viability, T/C [23]: 44.2% | viability, T/C [24]: 26.9% | viability, T/C [25]: 96.7% | viability, T/C [26]: 87.4% | viability, T/C [27]: 89.8% | viability, T/C [28]: 63.2% | viability, T/C [29]: 39.1% | viability, T/C [30]: 26.7% | viability, T/C [31]: 91.3% | viability, T/C [32]: 86.3% | viability, T/C [33]: 75.9% | viability, T/C [34]: 53.7% | viability, T/C [35]: 39% | viability, T/C [36]: 27.1%

pIC50 (second compound 0.0316 µM): < 6.00 | pIC50 (second compound 0.1 µM): < 6.00 | pIC50 (second compound 0.316 µM): < 6.00 | pIC50 (second compound 1 µM): < 6.00 | pIC50 (second compound 3.16 µM): < 6.00 | pIC50 (second compound 10 µM): < 6.00
Structure (SMILES): CCN1CCN(Cc2ccc(Nc3ncc(F)c(-c4cc(F)c5nc(C)n(C(C)C)c5c4)n3)nc2)CC1 + CC(Nc1ncnc2nc[nH]c12)c1cc2cccc(Cl)c2c(=O)n1-c1ccccc1
viability, T/C [37]: 98.9% | viability, T/C [38]: 98.3% | viability, T/C [1]: 114% | viability, T/C [2]: 114% | viability, T/C [3]: 96% | viability, T/C [4]: 123% | viability, T/C [39]: 105% | viability, T/C [40]: 110% | viability, T/C [7]: 103% | viability, T/C [8]: 113% | viability, T/C [9]: 102% | viability, T/C [10]: 115% | viability, T/C [41]: 94.5% | viability, T/C [42]: 100% | viability, T/C [13]: 92.3% | viability, T/C [14]: 96.9% | viability, T/C [15]: 104% | viability, T/C [16]: 107% | viability, T/C [43]: 104% | viability, T/C [44]: 95.3% | viability, T/C [19]: 99.8% | viability, T/C [20]: 101% | viability, T/C [21]: 104% | viability, T/C [22]: 109% | viability, T/C [45]: 103% | viability, T/C [46]: 94.6% | viability, T/C [25]: 98.1% | viability, T/C [26]: 99.8% | viability, T/C [27]: 108% | viability, T/C [28]: 89.8% | viability, T/C [47]: 100% | viability, T/C [48]: 91.5% | viability, T/C [31]: 83.9% | viability, T/C [32]: 85.8% | viability, T/C [33]: 82.4% | viability, T/C [34]: 89.5%

pIC50 (second compound 0.0316 µM): < 5.00 | pIC50 (second compound 0.1 µM): < 5.00 | pIC50 (second compound 0.316 µM): < 5.00 | pIC50 (second compound 1 µM): < 5.00 | pIC50 (second compound 3.16 µM): < 5.00 | pIC50 (second compound 10 µM): < 5.00
Structure (SMILES): C[C@@H](NC(=O)c1ncnc(N)c1Cl)c1ncc(C(=O)Nc2cc(C(F)(F)F)c(Cl)cn2)s1 + CC(Nc1ncnc2nc[nH]c12)c1cc2cccc(Cl)c2c(=O)n1-c1ccccc1
viability, T/C [1]: 90.2% | viability, T/C [2]: 104% | viability, T/C [3]: 106% | viability, T/C [4]: 112% | viability, T/C [5]: 100% | viability, T/C [6]: 101% | viability, T/C [7]: 98.3% | viability, T/C [8]: 100% | viability, T/C [9]: 98.3% | viability, T/C [10]: 98.7% | viability, T/C [11]: 110% | viability, T/C [12]: 117% | viability, T/C [13]: 99.3% | viability, T/C [14]: 102% | viability, T/C [15]: 101% | viability, T/C [16]: 97.7% | viability, T/C [17]: 103% | viability, T/C [18]: 105% | viability, T/C [19]: 98.5% | viability, T/C [20]: 106% | viability, T/C [21]: 90.9% | viability, T/C [22]: 101% | viability, T/C [23]: 104% | viability, T/C [24]: 95.7% | viability, T/C [25]: 98% | viability, T/C [26]: 100% | viability, T/C [27]: 98.6% | viability, T/C [28]: 98.9% | viability, T/C [29]: 106% | viability, T/C [30]: 96.1% | viability, T/C [31]: 94% | viability, T/C [32]: 85.2% | viability, T/C [33]: 82.8% | viability, T/C [34]: 86.7% | viability, T/C [35]: 89.9% | viability, T/C [36]: 88.6%

pIC50 (second compound 0.0316 µM): < 7.00 | pIC50 (second compound 0.1 µM): < 7.00 | pIC50 (second compound 0.316 µM): < 7.00 | pIC50 (second compound 1 µM): < 7.00 | pIC50 (second compound 3.16 µM): < 7.00 | pIC50 (second compound 10 µM): < 7.00
Structure (SMILES): Cn1ncnc1[C@H]1c2n[nH]c(=O)c3cc(F)cc(c23)N[C@@H]1c1ccc(F)cc1 + CC(Nc1ncnc2nc[nH]c12)c1cc2cccc(Cl)c2c(=O)n1-c1ccccc1
viability, T/C (second compound 0.0316 µM, first compound 0.000316 µM): 110% | viability, T/C (second compound 0.0316 µM, first compound 0.001 µM): 94.2% | viability, T/C [37]: 89.2% | viability, T/C [38]: 109% | viability, T/C [1]: 89.5% | viability, T/C [2]: 77.1% | viability, T/C (second compound 0.1 µM, first compound 0.000316 µM): 94.7% | viability, T/C (second compound 0.1 µM, first compound 0.001 µM): 101% | viability, T/C [39]: 91.8% | viability, T/C [40]: 96.7% | viability, T/C [7]: 97.4% | viability, T/C [8]: 84% | viability, T/C (second compound 0.316 µM, first compound 0.000316 µM): 92.6% | viability, T/C (second compound 0.316 µM, first compound 0.001 µM): 103% | viability, T/C [41]: 102% | viability, T/C [42]: 105% | viability, T/C [13]: 85.8% | viability, T/C [14]: 85.2% | viability, T/C (second compound 1 µM, first compound 0.000316 µM): 102% | viability, T/C (second compound 1 µM, first compound 0.001 µM): 102% | viability, T/C [43]: 103% | viability, T/C [44]: 95.5% | viability, T/C [19]: 90.9% | viability, T/C [20]: 86.2% | viability, T/C (second compound 3.16 µM, first compound 0.000316 µM): 92.9% | viability, T/C (second compound 3.16 µM, first compound 0.001 µM): 91.1% | viability, T/C [45]: 87.7% | viability, T/C [46]: 95.5% | viability, T/C [25]: 84.1% | viability, T/C [26]: 79.9% | viability, T/C (second compound 10 µM, first compound 0.000316 µM): 88.1% | viability, T/C (second compound 10 µM, first compound 0.001 µM): 80.8% | viability, T/C [47]: 73.8% | viability, T/C [48]: 78.6% | viability, T/C [31]: 74.3% | viability, T/C [32]: 61.5%

Reference: PubChem BioAssay AID1963982 (Molecular Pharmacology Branch, DTP, NCI, 2024)
